In patent publication US20240400606A1, “SMALL MOLECULE ACTIVATORS OF THE IMMUNE SYSTEM” (THE BOARD OF TRUSTEES OF THE UNIVERSITY OF ILLINOIS, priority 2021, published 2024):

Key:
SULT2B1b = SULT2B1b (Homo sapiens (Human), UniProt O00204); assay: LC-MS/MS based in vitro assay (DHEA-sulfate formation); assay type: biochemical; details: 100 μM compound, 2 hours; mean±s.e.m., n=3
Protocol: LC-MS/MS Based In Vitro Assay. Stock solutions of DHEA (5 mM in DMSO) and compound of interest (5 mM in DMSO) were prepared. […] SULT2B1b was diluted to 1.5 μg/μL in protein storage buffer then down to 0.8 μg/μL in 1× activity assay buffer. 30 μL of 0.8 μg/μL SULT2B1b was added to each reaction. Reactions were incubated for 2 hours at 37° C. with shaking at 250 rpm. To quench, 30 μL reaction mix was added to 30 μL ice cold 0.5% HCl in MeCN, then centrifuged at 13,000 xg at room temperature for 3 min. 50 μL supernatant was transferred to an empty Eppendorf tube and submitted for LC-MS/MS quantification (UIUC Metabolomics Center), along with 5 mM DHEA sulfate standard. Controls: Reaction mix made with DHEA and DMSO in place of compound of interest (DHEA control). […] General LC-MS/MS Quantification Method. Both DHEAS and CS samples were analyzed by 6500 QTRAP (Sciex, Redwood City, CA) liquid chromatography-tandem mass spectrometry. […] The flow rate was 0.3 mL/min. […] The source temperature was 400° C. […] Cholesterol-sulfate and DHEA-sulfate were detected by multiple reaction monitoring (MRM) at m/z 465→97.0 and 367.0→97.0 respectively. Software Analyst 1.7.1 ([…]) was used for data acquisition and analysis.

[1] = test system: whole cell CS levels in MCF-7; assay: Whole cell cholesterol sulfate quantification, MCF-7; assay type: cell-based, human; details: 72 hours
Protocol: (§1) General Whole Cell Cholesterol Sulfate Quantification. 60×15 mm tissue culture dishes were seeded with MCF-7 at 2×10^6 cells/dish or T47D at 1×10^6 cells per dish, 5 mL total media volume, and allowed to adhere overnight. Compounds of interest were dissolved in DMSO. Cells were treated with 25 μL 1.25 mM compound of interest stock (6.25 μM final compound concentration, 0.5% final DMSO concentration) or DMSO for 72 hours. To harvest, media was aspirated, and cells were washed once with PBS before detaching with trypsin. Trypsin was quenched with media. Cells were centrifuged at 300 xg for 3 minutes and supernatant was discarded. Cells were resuspended in media and counted using a Countess 3 automated cell counter (Thermo Fisher Scientific). 1.5×10^6 cells were collected, washed twice with 1 mL PBS, then pelleted and stored at −80° C. until lysis. Cell pellets were resuspended in 200 μL cold 70:30 methanol:water and placed on ice. Cell suspension was sonicated on ice (30%, 10 s on, 20 s off, 1 min total) and continued to be incubated on ice for 30 minutes. Lysate was clarified by centrifugation at 14,100 xg at 4° C. for 30 minutes. 100 μL of supernatant was transferred to an empty Eppendorf tube and submitted for LC-MS/MS quantification (UIUC Metabolomics Center), along with 5 mM cholesterol sulfate sodium salt standard.
as §1, with “Time Course Whole Cell” for “General Whole Cell”, “2×10^6 cells/dish per dish,” for “2×10^6 cells/dish or T47D at 1×10^6 cells per dish,”, “DMSO for 0 (harvested immediately), 4, 8, 24, 48, or 72 hours.” for “DMSO for 72 hours.”
Whole Cell Cholesterol Sulfate Quantification with Compound Removal. 60×15 mm tissue culture dishes were seeded with MCF-7 at 2×10^6 cells/dish, 5 mL total media volume, and allowed to adhere overnight. Compounds of interest were dissolved in DMSO. Cells were treated with 25 μL 1.25 mM compound of interest stock (6.25 μM final compound concentration, 0.5% final DMSO concentration) for 0 hours (harvested immediately) or 24 hours. Media was aspirated and replaced with 5 mL fresh media, then cells were either harvested (24 hour time point) or further incubated. To harvest, media was aspirated, and cells were washed once with PBS before detaching with trypsin. Trypsin was quenched with media. Cells were centrifuged at 300 xg for 3 minutes and supernatant was discarded. Cells were resuspended in media and counted using a Countess 3 automated cell counter (Thermo Fisher Scientific). 1.5×10^6 cells were collected, washed twice with 1 mL PBS, then pelleted and stored at −80° C. until lysis. Cell pellets were resuspended in 200 μL cold 70:30 methanol:water and placed on ice. Cell suspension was sonicated on ice (30%, 10 s on, 20 s off, 1 min total) and continued to be incubated on ice for 30 minutes. Lysate was clarified by centrifugation at 14,100 xg at 4° C. for 30 minutes. […]

[2] = test system: free cholesterol levels in MCF-7; assay: Whole cell cholesterol assay; assay type: cell-based, human; details: MCF-7, 6.25 μM, 72 hours
Protocol: Whole Cell Cholesterol Assay. Assay was run according to manufacturer's instructions. Briefly, 5000 MCF-7 cells were plated in 99 μL media in a 96-well plate and allowed to adhere overnight before DMSO solutions of compounds were added to each well. Final concentration of DMSO in each well is 1%, final volume: 100 μL. At the end of 72 hours, media was aspirated, and cells were washed twice with 100 μL PBS. 50 μL of cholesterol lysis solution was added and cells were incubated for 30 minutes at 37° C. 50 μL of sample was then transferred to a 96-well white walled assay plate. 50 μL of cholesterol detection reagent was added to all wells and incubated at room temperature for 1 hour. Luminescence was read using a SpectraMax M3 plate reader (Molecular Devices). Cholesterol levels were determined by use of a cholesterol standard curve.

Sequence of SULT2B1b (O00204 whole entry): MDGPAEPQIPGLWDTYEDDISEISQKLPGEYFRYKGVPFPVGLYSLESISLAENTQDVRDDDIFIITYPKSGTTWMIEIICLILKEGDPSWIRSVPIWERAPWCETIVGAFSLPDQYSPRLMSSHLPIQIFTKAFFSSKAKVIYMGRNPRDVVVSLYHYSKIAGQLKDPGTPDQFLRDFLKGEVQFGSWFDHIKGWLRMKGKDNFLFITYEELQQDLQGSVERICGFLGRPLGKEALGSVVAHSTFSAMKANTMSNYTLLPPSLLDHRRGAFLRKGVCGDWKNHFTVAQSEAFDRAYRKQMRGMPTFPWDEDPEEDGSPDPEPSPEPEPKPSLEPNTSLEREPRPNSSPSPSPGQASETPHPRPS

inhibition at 100 µM (SULT2B1b) [%]	Compound	also measured
52 ± 10	C[C@]12CCC(=O)N(Cc3ccc4ccccc4c3)C1=CC[C@@H]1[C@@H]2C(=O)C[C@]2(C)C(=O)CC[C@@H]12 [Compound 12, (4aR,4bS,6aS,9aS,9bS)-4a,6a-dimethyl-1-(naphthalen-2-ylmethyl)-3,4,4a,6,6a,8,9,9a,9b,10-decahydro-1H-indeno[5,4-f]quinoline-2,5,7(4bH)-trione]	–
55 ± 2	C[C@]12CCC(=O)N(Cc3ccc(F)cc3)C1=CC[C@@H]1[C@@H]2C(=O)C[C@]2(C)C(=O)CC[C@@H]12 [Compound 4, (4aR,4bS,6aS,9aS,9bS)-1-(4-fluorobenzyl)-4a,6a-dimethyl-3,4,4a,6,6a,8,9,9a,9b,10-decahydro-1H-indeno[5,4-f]quinoline-2,5,7(4bH)-trione]	–
48 ± 2	C[C@]12CCC(=O)N(Cc3ccccc3)C1=CC[C@@H]1[C@@H]2C(=O)C[C@]2(C)C(=O)CC[C@@H]12 [Compound 5, (4aR,4bS,6aS,9aS,9bS)-1-benzyl-4a,6a-dimethyl-3,4,4a,6,6a,8,9,9a,9b,10-decahydro-1H-indeno[5,4-f]quinoline-2,5,7(4bH)-trione]	–
46 ± 1	C[C@]12CCC(=O)N(Cc3ccccc3Cl)C1=CC[C@@H]1[C@@H]2C(=O)C[C@]2(C)C(=O)CC[C@@H]12 [Compound 8, (4aR,4bS,6aS,9aS,9bS)-1-(2-chlorobenzyl)-4a,6a-dimethyl-3,4,4a,6,6a,8,9,9a,9b,10-decahydro-1H-indeno[5,4-f]quinoline-2,5,7(4bH)-trione]	–
69.8 ± 0.5	C[C@]12CCC(=O)N(Cc3cccc(Cl)c3)C1=CCC1[C@@H]2C(=O)C[C@]2(C)C(=O)CC[C@@H]12 (stereo partly drawn) [Compound 7, (4aR,4bS,6aS,9aS,9bS)-1-(3-chlorobenzyl)-4a,6a-imethy-3,4,4a,6,6a,8,9,9a,9b,10-decahydro-1H-indeno[5,4-f]quinoline-2,5,7(4bH)-trione]	–
27 ± 2	C[C@]12CCC(=O)N(CC3CC3)C1=CC[C@@H]1[C@@H]2C(=O)C[C@]2(C)C(=O)CC[C@@H]12 [Compound 13, (4aR,4bS,6aS,9aS,9bS)-1-(cyclopropylmethyl)-4a,6a-dimethyl-3,4,4a, 6,6a, 8,9,9a, 9b,10-decahydro-1H-indeno[5,4-f]quinoline-2,5,7(4bH)-trione]	–
53 ± 1	C[C@]12CCC(=O)N(Cc3ccc(Br)nc3)C1=CC[C@@H]1[C@@H]2C(=O)C[C@]2(C)C(=O)CC[C@@H]12 [Compound 11, (4aR,4bS,6aS,9aS,9bS)-1-((6-bromopyridin-3-yl)methyl)-4a,6a-dimethyl-3,4,4a,6,6a,8,9,9a,9b,10-decahydro-1H-indeno[5,4-f]quinoline-2,5,7(4bH)-trione]	–

The next lines start with the compound.

Compound	inhibition at 100 µM (SULT2B1b) [%]	also measured
C[C@]12CCC(=O)N(Cc3ccc(Cl)cc3)C1=CC[C@@H]1[C@@H]2C(=O)C[C@@]2(C)[C@H]1CCC21OCCO1 [Compound 10, (4aR,4bS,6aS,9aS,9bS)-1-(4-chlorobenzyl)-4a,6a-dimethyl-1,3,4,4a,4b,6,6a,8,9,9a,9b,10-dodecahydrospiro[indeno[5,4-f]quinoline-7,2′-[1,3]dioxolane]-2,5-dione]	45 ± 1	–
C[C@]12CCC(=O)N(Cc3ccc(Cl)cc3)C1=CC[C@@H]1[C@@H]2CC[C@]2(C)C(=O)CC[C@@H]12 [Compound 9, (4aR,4bS,6aS,9aS,9bR)-1-(4-chlorobenzyl)-4a,6a-dimethyl-3,4,4a,4b,5,6,6a,8,9,9a,9b,10-dodecahydro-1H-indeno[5,4-f]quinoline-2,7-dione]	53 ± 1	–
O=CC1(C2(C=O)c3ccccc3-c3ccccc32)c2ccccc2-c2ccccc21 [Raptinal, reference compound]	–	whole cell CS levels vs DMSO ([1]; MCF-7, sub-lethal 0.156 μM): no significant difference
C[C@]12CCC(=O)N(CC3CCCCC3)C1=CC[C@@H]1[C@@H]2C(=O)C[C@]2(C)C(=O)CC[C@@H]12 [Compound 14, (4aR,4bS, 6aS, 9aS, 9bS)-1-(cyclohexylmethyl)-4a, 6a-dimethyl-3,4,4a, 6,6a, 8,9,9a, 9b,10-decahydro-1H-indeno[5,4-f]quinoline-2,5,7(4bH)-trione]	48 ± 2	–
CN1C(=O)CC[C@@]2(C)C1=CC[C@@H]1[C@@H]2C(=O)C[C@]2(C)C(=O)CC[C@@H]12 [Compound 6, (4aR,4bS,6aS,9aS,9bS)-1,4a,6a-trimethyl-3,4,4a,6,6a,8,9,9a,9b,10-decahydro-1H-indeno[5,4-f]quinoline-2,5,7(4bH)-trione]	8.8 ± 0.4	whole cell CS levels vs DMSO ([1]; MCF-7, 6.25 μM compound): not seen; free cholesterol levels vs DMSO [2]: no statistical difference
